According to patent US20070197426A1, “Lactoferrin polypeptide, process for producing the same and inflammation inducing substance” (priority 2004, published 2007):

Key:
Type in all cases: cell-based
Settings in all cases: normal human peripheral blood lymphocytes
IL-6 = IL-6 production by human peripheral blood lymphocytes co-cultured with peptide (enzyme antibody method)
Protocol: (§1) Lymphocytes were separated from normal human peripheral blood, which was collected by using heparin sodium, by specific gravity centrifugation using Lympholight H (Cedarlane, Canada), and inducing ability for production of various cytokines and chemokines and inducing ability for expression of NFκBp65, a cellular transcription factor, were analyzed using the lymphocytes. Human cytokines (IL-6 and TNFα; Techne Co., USA), chemokines (IL-8 and MCP-1; American Research Product, Inc., USA) and on NFκB (TransAM NFκB family transcription factor assay kit; Active Motif, Co., USA) were measured by enzyme antibody method.

IL-8 = IL-8 production by human peripheral blood lymphocytes co-cultured with peptide (enzyme antibody method)
Protocol: as §1

MCP-1 = MCP-1 production by human peripheral blood lymphocytes co-cultured with peptide (enzyme antibody method)
Protocol: as §1

NFκBp65 = NFκBp65 expression in human peripheral blood lymphocytes (TransAM NFκB family transcription factor assay kit)
Protocol: as §1

| Substance | production of IL-6, one inflammatory cytokine (IL-6) | inducing ability for production of IL-8 (IL-8) | inducing ability for production of MCP-1 (MCP-1) | enhancement of expression of NFκBp65, a cellular transcription factor (NFκBp65) |
| --- | --- | --- | --- | --- |
| FKDCHLA [HuPep1] | could be confirmed | confirmed | confirmed | confirmed |
| GQKDLLFKDSAI [HuPep4] | could be confirmed | confirmed | confirmed | confirmed |
